Laboratory results: US20130158080A1, “METHODS FOR TREATING HYPERTENSION IN BLACK PATIENTS” (Takeda Pharmaceuticals U.S.A., Inc., priority 2011, published 2013)

Test system: subjects with moderate to severe hypertension
Experiment: Same study: safety and tolerability (adverse events, laboratory tests, discontinuations)
Set-up: species or system human
Settings: in vivo
From the text: Randomization was stratified by subject's race: Black and non-Black. Before initiation of treatment, all subjects participated in a 2-week, single-blind, placebo Run-in Period (Days −14 to −1). […] Subjects taking previous antihypertensive agents were required to participate in a 3 week Washout Period (Days −21 to −1).
Safety variables included adverse events, vital signs (including orthostatic vital signs), 12-lead electrocardiogram (ECG) findings, and clinical laboratory test results.
Treatment-emergent adverse events (TEAEs) were tabulated, and vital signs and 12-lead ECG findings were summarized with descriptive statistics. All safety data were presented in the listings.

azilsartan medoxomil potassium plus chlorthalidone [TAK-491CLD]
Mean increases in serum creatinine, blood urea nitrogen, and serum uric acid: more common
